Experimental findings from patent US11851692B2, “Method for preparing an antimycin compound produced by Streptomyces sp.4-7” (priority 2022, dated 2023) are described below.

Converted amounts (≈) assume the structure as drawn.

The nature of experiment [1]: Oxford Cup method antifungal test, Botrytis cinerea. The format is cell-based, Botrytis cinerea (CGMCC3.3789). Particulars: Staphylococcus, CGMCC3, 120 h; Oxford Cup method, PDA plates, 28° C., 5 days; strain CGMCC 3.3789; read-out: minimum inhibitory concentration (MIC). The protocol: (§1) Preparation of the test sample solution: The test sample was the pure compound I separated and purified in the above Example 1. An appropriate amount of sample was accurately weighed and mixed with DMSO to obtain a solution of the required concentration for testing the antifungal activity. The indicator bacteria used in this experiment were Botrytis cinerea (CGMCC3.3789) and Penicillium citrinum (ATCC1109).
(§2) Oxford Cup method for antifungal test: 100 μL of spore suspension was spread evenly on PDA plates, and Oxford cups were placed in the center of the plates. 100 μL of compound solutions of different concentrations were added into the Oxford cups separately, the concentrations of the compound solutions were 32 μg/mL, 16 μg/mL, 8 μg/mL, 4 μg/mL, 2 μg/mL, 1 μg/mL, and 0.5 μg/mL. DMSO was used as a negative control, and prochloraz of the same concentration was used as a positive control. After incubation at 28° C. for 5 days, the growth of fungi was observed. Four culture plates were set up for each treatment, and the whole experiment was repeated three times.

Experiment [2] relates to Staphylococcus griseus (CGMCC 3.3789). Described as above. The format is cell-based, Botrytis cinerea (CGMCC3.3789). To be noted: result in words. The procedure:
as §1, §2

Experiment [3] has as its system Penicillium oryzae (ATCC 1109). In words: Oxford Cup method antifungal test, Penicillium citrinum. Format: cell-based, Penicillium citrinum (ATCC1109). The procedure: as §1, §2

For `CC[C@@H](C)C[C@H]1C(=O)O[C@H](C)[C@H](NC(=O)c2cccc(NC=O)c2O)C(=O)O[C@@H](C)[C@@H]1CC(=O)C(C)C` [Compound I, Antimycin I], the MIC turned out to be 2 µg/mL (≈ 3.86 µM) in experiment [1] and 4 µg/mL (≈ 7.71 µM) in experiment [3] (Penicillium, ATCC1109, 120 h, Oxford Cup method, PDA plates, 28° C., 5 days, strain ATCC 1109, read-out: minimum inhibitory concentration (MIC)). Moreover, the “resistance activity against Botrytis cinerea (antifungal activity screening)” value in experiment [2] is reported as “significant resistance activity”. Moreover, in experiment [3] (result in words), the “resistance activity against Penicillium citrinum (antifungal activity screening)” value was “significant resistance activity”.
